Counter-ions that a name gives are not always drawn. Like-named read-outs stand apart in the source and are kept apart here. Marks after values point to notes of the source that are not given here.
Assays:
[1] = test system: Viral SN123 infected CEM cells
Experimental: Purpose: To determine IC50 CC50 for compounds:
Media A [1% DMSO] (100 microliters DMSO+9.9 ml media A)
CEM cells @ [1×10^4] cells/ml (4 plate=40 ml) (6 plate=60 ml)
(need 70 microliters of each)
A-D at [10 mM] in 100% DMSO
4 or 6 u-bottom 96-well plates
4 flat bottom 96-well plates for dilutions
8-10 boxes of sterile costar tips
Approximately 10 reagent trays
1000 cells/well=1×10^4 cells/ml=1000 cells/100 microliters 200 microliters=total volume in a well
Cell Preparation and Plating of Cells, Media A and Media A (1% DMSO)
a. Number a 96-well tissue culture plate for each compound tested, one for a control plate, and one for the control compound.
b. Count cells on hemacytometer and resuspend them in 40 ml or 80 ml of Media A at a concentration of [1×10^4]0 cells/ml.
Counting Cells on a Hemacytomer:
Label two 1.8 ml nuc tubes 1 and 2.
Put 0.5 ml of well mixed CEM cells (in growth phase) in tube 1.
Put 50 micoliters PBS and 40 microliters of trypan blue into tube 2.
Mix up the cells in tube 1 then remove 10 microliters of cells and put them into tube 2.
Mix well in tube 2, then remove 10 microliters of the stained cells and put them on the hemacytometer.
Count the number of cells in the center square of the hemacytometer with the microscope set on 10×.
The concentration of the stock CEM's in cells/ml is as follows:
Cells counted×1×10^5=Concentration of CEM's in [cells/ml].
c. Add 200 microliters Media A to: A1 of places 2-6. These are Blanks. A4-H4 of plate 1. These are Blanks.
d. Add 5 microlicers Media A to all wells of Rows A-D of plates 2-6 except A1 (the top half of each plate).
e. Add 50 microliters of Media A to wells A1-D3 of Plate 1 (the top half of the plate).
f. Add 50 microliters Media A[l% DMSO] to all wells of Columns 1-3 of plate 1.
This puts 1000 cells/well.
h. Put plates in an incubator while doing drug dilutions.
Preparation Control and Test Drugs
(1) Put 60 microliters of DMSO into all wells of Columns 2-12, Rows A-E.
(3) Put 70 microliters of A [10 mM] at 100% DMSO into well B1.
(4) Put 70 microliters of B [10 mM] at 100% DMSO into well C1.
(5) Put 70 microliters of C [10 mM] at 100% DMSO into well D1.
(6) Put 70 microliters of D [10 mM] at 100% DMSO into well E1.
Change tips before each dilution.
(1) In rows A-E of another plate make a row for the first 1:10 dilution to correspond to each compound's 100% DMSO row.
A into Row B for the first 1:10 dilution.
B into Row C for the first 1:10 dilution.
C into Row D for the first 1:10 dilution.
D into Row E for the first 1:10 dilution.
(2) Put 180 microliters of media A into all wells of rows A-E corresponding to the 100% DMSO rows. 2.5 ml needed per row.
(3) Remove 20 microliters from all wells of each row of the 100% DMSO rows and transfer it to the corresponding 1:10 row.
(1) Make a plate for every 3 compounds to be tested.
Use 20 ml of media A per plate.
(3) Transfer 25 microliters of each compound from the row in the 1:10 dilution to the corresponding two rows on the 1:100 dilution plate changing tips before each transfer.
Addition of Viral SN123 to Plates
a. Thaw Sn123 in 37° C. water bath for approximately 10 minutes.
b. Dilute Sn123 1:16 by adding 1 ml of Sn123 to 15 ml of media A.
c. Add 50 microliters of Sn123 [1:16] to wells E1-H12 of plates 2-6 and to wells E1-H3 of plate 1.
Addition of Drugs to Plates
a. Add 50 microliters of the control and test drugs from the rows in the 1:100 dilution plates to the appropriate rows in the final plates (changing tips before each transfer). One row in the 1:100 plate will do 4 rows in the final plate. Leave A1 blank.
b. Incubate all plates 7 days at 37° C. 5% CO2.
c. Do Xtt protocol on day 7 as follows:
d. Preparation of Xtt/PMS Solution: (4 plate=20 ml) (6 plate=30 ml)
100 microliters [100 mM] PMS+4.9 ml PBS=PMS at [2 mM]
(2) Heat 500 ml of H2O in microwave for 5 minutes on high.
(3) Put 20 or 30 ml of phenol red RPMI in a 50 ml centrifuge tube.
(4) Put the RPMI in the beaker of hot water.
(5) Add 20 or 30 mg of XTT to the warmed up RPMI.

[2] = biological target: HIV-1 protease (Human immunodeficiency virus type 1 group M subtype B, UniProt P04585); assay: Fluorescence HIV-1 Protease Inhibitor Assay (Pandex); type: biochemical; set-up: made in house; host or cells: E. coli K12 L507/pHP10D (NRRL B-18560)
Experimental: A. Preparation of Protease and Gag Fractions
Lyophils of E. coli K12 L507/pHP10D were obtained from the Northern Regional Research Laboratory, Peoria, Ill. 61604, under the accession number NRRL B-18560 (deposited Nov. 14, 1989). The lyophils were decanted into tubes containing 10 ml LB medium (10 g Bacto-tryptone, 5 g Bacto-yeast extract, and 10 g aqueous sodium chloride per liter; the pH was adjusted to 7.5 and incubated at 32° C. overnight).
A small portion of the overnight culture was placed on LB-agar (LB medium with 15 g/L Bacto-agar) plates containing 12.5 micrograms/ml tetracycline in a manner so as to obtain a single colony isolate of E. coli K12 L507/pHP10D. The single colony obtained was inoculated into 10 ml of LB medium containing 12.5 micrograms/ml tetracycline and incubated overnight at 32° C. with vigorous shaking. The 10 ml overnight culture was inoculated into LB medium containing 12.5 micrograms/ml tetracycline and incubated at 32° C. with vigorous shaking until the culture reached mid-log phase. […]
3. Preparation of Protease Fraction
A culture of E. coli K12 L507/pHP10D was grown to mid-log phase at 32° C. in LB media containing 12.5 micrograms/ml tetracycline. The cultivation temperature was quickly elevated to 40° C. to induce gene expression, and the cells were allowed to grow for 2.5 hours at this temperature before the culture was quickly chilled on ice. The cells were centrifuged and the cell pellet was resuspended in 20 ml of 50 mmol MES buffer (pH 6.0) containing 1 mmol EDTA, 1 mmol DTT, 1 mmol PMSF and 10% glycerol (“Buffer A”). Cells were lysed by sonication using a Fischer Model 300 Dismembrator and a microtip probe. Following centrifugation at 27,000×g, the supernatant was diluted to a total volume of 60 ml with Buffer A and loaded onto a 2.0×19 cm QAE-Sepharose column (1 ml/min, 4° C.), that had been equilibrated in Buffer A. The column was washed isocratically for 180 min and then eluted with a gradient eluent of […] aqueous sodium chloride in Buffer A over 120 min. Enzymatic activity was measured by HPLC using the synthetic peptide Ser-Gln-Asn-Tyr-Pro-Ile-Val as described in Margolin et al., Biochem. Biophys. Res. Commun., 167, 554-560 (1990); the production of the p1 peptide (Ser-Gln-Asn-Tyr) was measured.
The active fractions were combined, adjusted to […] 1.2M in ammonium sulfate, and applied to a 2.0×18 cm hexyl agarose column that had been equilibrated in Buffer A containing 1.2M ammonium sulfate. The sample was loaded at a flow rate of 1 ml/min at 4° C., washed with the equilibration buffer for 240 min (1 ml/min) and then eluted using a reverse linear gradient of 1.2-0M ammonium sulfate in Buffer A for 120 min at the same flow rate. The column was then washed isocratically in Buffer A for 120 min.
The active fractions were combined, concentrated to 10 ml using an Amicon stirred cell with a YM-10 membrane and then applied to a MonoS cation exchange column (1.0×10 cm) that had been equilibrated in Buffer A. The sample was loaded at a flow rate of 1 ml/min at 25° C. After washing isocratically for 30 min, the protease was eluted using a linear gradient of 0-0.45M aqueous sodium chloride in Buffer A over 40 min. The column was washed isocratically in Buffer A containing 0.45M aqueous sodium chloride for 30 minutes.
The active fractions were combined and concentrated to 200 microliters using an Amicon stirred cell and a YM-10 membrane and then the protease was applied to a Superose 6 size exclusion column equilibrated in Buffer A containing 0.1M aqueous sodium chloride.

[3] = value as run, 35B value of the same run in footnote or parentheses, read-out: Pandex IC50 ng/ml (converted)
[4] = value as run, 35B value of the same run in footnote or parentheses
[5] = normalized to positive control (=1.0), * = a calculated average, read-out: Fluorescence Assay IC50 in ng/mL (converted)

## Cc1c(O)cccc1C(=O)N[C@@H](CSc1ccccc1)[C@H](O)CN1C[C@H]2CCCC[C@H]2C[C@H]1C(=O)NC(C)(C)C (relative stereo) [Example 75, [3S-(3R*, 4aR*, 8aR*, 2′S*, 3′S*)]-2-[2′-Hydroxy-3′-phenylthiomethyl-4′-aza-5′-oxo-5′-(2″-methyl-3″-hydroxyphenyl)pentyl]-decahydroisoquinoline-3-N-t-butyl carboxamide methanesulfonic acid salt]
[1]; Human immunodeficiency virus 1, CCRF-CEM, read-out: Whole cell IC50 nM, CEM cells, values in parentheses are 35B in same assay
  IC50: 14.5 nM
[1]; Human immunodeficiency virus 1, CCRF-CEM, read-out: Whole cell IC90 nM, CEM cells, values in parentheses are 35B in same assay
  IC90: 56.1 nM

## CC(C)(C)NC(=O)[C@@H]1C[C@@H]2CCCC[C@@H]2CN1C[C@@H](O)[C@H](Cc1ccccc1)NC(=O)c1ccsc1 (relative stereo) [Example 87, [3S-(3R*, 4aR*, 8aR*, 2′S*, 3′R*)]-2-[2′-Hydroxy-3′-phenylmethyl-4′-aza-5′-oxo-5′-(thieno-3″-yl)pentyl]-decahydroisoquinoline-3-N-t-butyl carboxamide]
[2]; at 1,000 ng/ml
  Pandex IC50 (given as % at concentration): 25%

## CC(C)(C)NC(=O)[C@@H]1C[C@@H]2CCCC[C@@H]2CN1C[C@@H](O)[C@H](Cc1ccccc1)NC(=O)C1CCS(=O)(=O)C1 (relative stereo) [Example 88, [3S-(3R*, 4aR*, 8aR*, 2′S*, 3′R*)]-2-[2′-Hydroxy-3′-phenylmethyl-4′-aza-5′-oxo-5′-(tetrahydrothieno-3″-yl-1″,1″-dioxide)pentyl]-decahydroisoquinoline-3-N-t-butyl carboxamide]
[2]; at 20 ng/ml
  Pandex % at 20 ng/ml: 28%

## Cc1ccsc1C(=O)N[C@@H](CSc1ccccc1)[C@H](O)CN1C[C@H]2CCCC[C@H]2C[C@H]1C(=O)NC(C)(C)C (relative stereo) [Example 90, [3S-(3R*, 4aR*, 8aR*, 2′S*, 3′S*)]-2-[2′-Hydroxy-3′-phenylthiomethyl-4′-aza-5′-oxo-5′-(3″-methyl-thieno-2″-yl)pentyl]-decahydroisoquinoline-3-N-t-butyl carboxamide]
[2]; [3]
  IC50: 48.4 nM

## CC(C)(C)NC(=O)[C@@H]1C[C@@H]2CCCC[C@@H]2CN1C[C@@H](O)[C@H](CSc1ccccc1)NC(=O)[C@H]1CS(=O)(=O)CN1 (relative stereo) [[3S-(3R*, 4aR*, 8aR*, 2′S*, 3′S*, 4″S)]-2-[2′-Hydroxy-3′-phenylthiomethyl-4′-aza-5′-oxo-5′-(thiazolino-4″-yl-1″,1″-dioxide)pentyl]-decahydroisoquinoline-3-N-t-butyl carboxamide]
[2]; [4]
  Pandex IC50: 244 ng/mL

## CC(C)(C)NC(=O)C1CC2CCCCC2CN1CC(O)C(Cc1ccccc1)NC(=O)c1cc(O)cc(O)c1Cl (stereo not drawn) [Example 8, [3S-(3R*,4aR*,8aR*,2′S*,3′R*)]-2-[2′-Hydroxy-3′-phenylmethyl-4′-aza-5′-oxo-5′-(2″-chloro-3″,5″-dihydroxyphenyl)pentyl] decahydroisoquinoline-3-N-t-butylcarboxamide]
[2]; [5]
  IC50: 28.7 nM
[2]; [3]
  IC50: 10.1 nM

## Cc1c(N)cc(N)cc1C(=O)NC(Cc1ccccc1)C(O)CN1CC2CCCCC2CC1C(=O)NC(C)(C)C (stereo not drawn) [Example 9, [3S-(3R*,4aR*,8aR*,2′S*,3′R*)]-2-[2′-Hydroxy-3′-phenylmethyl-4′-aza-5′-oxo-5′-(2″-methyl-3″,5″-diaminophenyl)pentyl] decahydroisoquinoline-3N-t-butylcarboxamide]
[2]; [5]
  IC50: 30.9 nM
[2]; [3]
  IC50: 95.9 nM

## COc1cccc(C(=O)NC(Cc2ccccc2)C(O)CN2CC3CCCCC3CC2C(=O)NC(C)(C)C)c1C (stereo not drawn) [Example 13, [3S-(3R*,4aR*,8aR*,2′S*,3′R*)]-2-[2′-Hydroxy-3′-phenylmethyl-4′-aza-5′-oxo-5′-(2″-methyl-3″-methoxyphenyl)pentyl] decahydroisoquinoline-3-N-t-butylcarboxamide]
[2]; [5]
  IC50: 629 nM

## Cc1c(O)cccc1C(=O)NC(Cc1ccccc1)C(O)CN1CC2CCCCC2CC1C(=O)NC(C)(C)C (stereo not drawn) [Example 28, [3S-(3R*,4aR*,8aR*,2′S*,3′R*)]-2-[2′-Hydroxy-3′-phenylmethyl-4′-aza-5′-oxo-5′-(2″-methyl-3″-hydroxyphenyl)pentyl] decahydroisoquinoline-3-N-t-butylcarboxamide monomesylplate salt]
[1]; read-out: Whole cell IC50 nM, CEM cells, tested as the mesylate salt
  IC50: 35.7 nM
[1]; read-out: Whole cell IC90 nM, CEM cells, tested as the mesylate salt
  IC90: 91.8 nM

## CC(C)(C)NC(=O)C1CC2CCCCC2CN1CC(O)C(Cc1ccccc1)NC(=O)c1cccc2c1CCCN2 (stereo not drawn) [Example 37, [3S-(3R*,4aR*,8aR*,2′S*,3′S*)]-2-[2′-Hydroxy-3′-phenylmethyl-4′-aza-5′-oxo-5′-[(1″,2″,3″,4″-tetrahydroquinolin-5″-yl)]pentyl] decahydroisoquinoline-3-N-y-butylcarboxamide]
[2]; [5]
  IC50: 49 nM
[2]; [3]
  IC50: 58.8 nM

## Cc1ccc(O)c(C)c1C(=O)NC(CSc1ccccc1)C(O)CN1CC2CCCCC2CC1C(=O)NC(C)(C)C (stereo not drawn) [Example 39, [3S-(3R*,4aR*,8aR*,2′S*,3′S*)]-2-[2′-Hydroxy-3′-phenylthiomethyl-4′-aza-5′-oxo-5′-[2″,6″-dimethyl-3″-hydroxyphenyl)pentyl] decahydroisoquinoline-3-N-t-butylcarboxamide]
[2]; [5]
  IC50: 9.11 nM
[2]; [3]
  IC50: 13.7 nM

## Cc1c(O)cccc1C(=O)N[C@@H](Cc1ccccc1)[C@H](O)Cc1ccccc1C(=O)NC(C)(C)C [Example 40, [2R′-(2R′*,3′S*)]-N-t-Butyl-2-[2′-hydroxy-3′-phenylmethyl-4′-aza-5′-oxo-5′-(2″methyl-3″-hydroxyphenyl)pentyl]benzamide]
[2]; [5]
  IC50: 21.1 nM

## CC(C)(C)NC(=O)c1ccccc1CC(O)C(CSc1ccc2ccccc2c1)NC(=O)c1cccc(Cl)c1Cl (stereo not drawn) [Example 54, [2′R-(2′R*,3′S*)]-N-t-Butyl-2-[2′-hydroxy-3′-naphth-2-ylthiomethyl-4′-aza-5′-oxo-5′-(2″,2″-dichlorophenyl)pentyl] benzamide]
[2]; [5]
  IC50: 129 nM

## CC(C)(C)NC(=O)c1ccccc1C[C@@H](O)[C@H](Cc1ccccc1)NC(=O)c1cccc2c1CCNC2 [Example 60, [2′R-(2′R*,3′S*)]-N-t-Butyl-2-[2′-hydroxy-3′-phenylmethyl-4′-aza-5′-oxo-5′-(1″,2″,3″,4″-tetrahydroisoquinolin-5″-yl)pentyl] benzamide]
[2]; [5]
  IC50: 801 nM

## [2′R-(2′R*,3′S*)]-N-t-Butyl-2-[2′-hydroxy-3′-naphth-2-ylthiomethyl-4′-aza-5′-oxo-5′-(1″-N(methyl)indol-4″-yl)pentyl] benzamide [Example 69]
[2]; concentration of the inhibitor not increased above 15 μg/mL
  Fluorescence Assay IC35: IC35(15000)** ng/mL

## [3S-(3R*,4aR*,8aR*,2′S*,3′S*)]-2-[2′-Hydroxy-3′-phenylthiomethyl-4′-aza-5′-oxo-5′-[6″-methyl-(1″,2″,3″,4″-tetrahydroquinolin-5″-yl)]pentyl] decahydroisoquinoline-3-N-t-butylcarboxamide [Example 38]
[2]; normalized to positive control (=1.0), * = a calculated average
  Fluorescence Assay IC50: 15.2 ng/mL
[2]; [4]
  Pandex IC50 ng/ml: 35^e ng/ml

Reference: patent US20030216569A1, “Method of making HIV protease inhibitors” (priority 1993, published 2003)
